Measured values: publication PMC10211317, “Identification of ARUK2002821 as an isoform-selective PI5P4Kα inhibitor” (RSC Medicinal Chemistry, 2023)

Key:
Test in all cases: Premier Screen kinase panel (MRC PPU)
Format in all cases: biochemical
MELK = MELK (Homo sapiens, UniProt Q14680); conditions: MELK (Entrez MELK), read-out: Residual activity (%)
Method: (§1) room temperature with shaking for 30 minutes. The kinase concentration in the eluates was measured by qPCR.
(§2) using ADP-GloTM assay at the MRC PPU International Centre for Kinase Profiling, University of Dundee.
(§3) Conducted by MRC PPU International Centre
(§4) Conducted by MRC PPU International Centre for […]

ULK1 = ULK1 (Homo sapiens, UniProt O75385); conditions: ULK1 (Entrez ULK1), read-out: Residual activity (%)
Method: as §1, §2, §3, §4

PIM2 = PIM2 (Homo sapiens, UniProt Q9P1W9); conditions: PIM2 (Entrez PIM2), read-out: Residual activity (%)
Method: as §1, §2, §3, §4

SYK = SYK (Homo sapiens, UniProt P43405); conditions: SYK (Entrez SYK), read-out: Residual activity (%)
Method: as §1, §2, §3, §4

MKK1 = MKK1 (Homo sapiens, UniProt Q02750); conditions: MKK1 (Entrez MAP2K1), read-out: Residual activity (%)
Method: as §1, §2, §3, §4

TLK1 = TLK1 (Homo sapiens, UniProt Q9UKI8); conditions: TLK1 (Entrez TLK1), read-out: Residual activity (%)
Method: as §1, §2, §3, §4

TTBK2 = TTBK2 (Homo sapiens, UniProt Q6IQ55); conditions: TTBK2 (Entrez TTBK2), read-out: Residual activity (%)
Method: as §1, §2, §3, §4

WNK1 = WNK1 (Homo sapiens, UniProt Q9H4A3); conditions: WNK1 (Entrez WNK1), read-out: Residual activity (%)
Sequence of WNK1 (Q9H4A3 whole entry): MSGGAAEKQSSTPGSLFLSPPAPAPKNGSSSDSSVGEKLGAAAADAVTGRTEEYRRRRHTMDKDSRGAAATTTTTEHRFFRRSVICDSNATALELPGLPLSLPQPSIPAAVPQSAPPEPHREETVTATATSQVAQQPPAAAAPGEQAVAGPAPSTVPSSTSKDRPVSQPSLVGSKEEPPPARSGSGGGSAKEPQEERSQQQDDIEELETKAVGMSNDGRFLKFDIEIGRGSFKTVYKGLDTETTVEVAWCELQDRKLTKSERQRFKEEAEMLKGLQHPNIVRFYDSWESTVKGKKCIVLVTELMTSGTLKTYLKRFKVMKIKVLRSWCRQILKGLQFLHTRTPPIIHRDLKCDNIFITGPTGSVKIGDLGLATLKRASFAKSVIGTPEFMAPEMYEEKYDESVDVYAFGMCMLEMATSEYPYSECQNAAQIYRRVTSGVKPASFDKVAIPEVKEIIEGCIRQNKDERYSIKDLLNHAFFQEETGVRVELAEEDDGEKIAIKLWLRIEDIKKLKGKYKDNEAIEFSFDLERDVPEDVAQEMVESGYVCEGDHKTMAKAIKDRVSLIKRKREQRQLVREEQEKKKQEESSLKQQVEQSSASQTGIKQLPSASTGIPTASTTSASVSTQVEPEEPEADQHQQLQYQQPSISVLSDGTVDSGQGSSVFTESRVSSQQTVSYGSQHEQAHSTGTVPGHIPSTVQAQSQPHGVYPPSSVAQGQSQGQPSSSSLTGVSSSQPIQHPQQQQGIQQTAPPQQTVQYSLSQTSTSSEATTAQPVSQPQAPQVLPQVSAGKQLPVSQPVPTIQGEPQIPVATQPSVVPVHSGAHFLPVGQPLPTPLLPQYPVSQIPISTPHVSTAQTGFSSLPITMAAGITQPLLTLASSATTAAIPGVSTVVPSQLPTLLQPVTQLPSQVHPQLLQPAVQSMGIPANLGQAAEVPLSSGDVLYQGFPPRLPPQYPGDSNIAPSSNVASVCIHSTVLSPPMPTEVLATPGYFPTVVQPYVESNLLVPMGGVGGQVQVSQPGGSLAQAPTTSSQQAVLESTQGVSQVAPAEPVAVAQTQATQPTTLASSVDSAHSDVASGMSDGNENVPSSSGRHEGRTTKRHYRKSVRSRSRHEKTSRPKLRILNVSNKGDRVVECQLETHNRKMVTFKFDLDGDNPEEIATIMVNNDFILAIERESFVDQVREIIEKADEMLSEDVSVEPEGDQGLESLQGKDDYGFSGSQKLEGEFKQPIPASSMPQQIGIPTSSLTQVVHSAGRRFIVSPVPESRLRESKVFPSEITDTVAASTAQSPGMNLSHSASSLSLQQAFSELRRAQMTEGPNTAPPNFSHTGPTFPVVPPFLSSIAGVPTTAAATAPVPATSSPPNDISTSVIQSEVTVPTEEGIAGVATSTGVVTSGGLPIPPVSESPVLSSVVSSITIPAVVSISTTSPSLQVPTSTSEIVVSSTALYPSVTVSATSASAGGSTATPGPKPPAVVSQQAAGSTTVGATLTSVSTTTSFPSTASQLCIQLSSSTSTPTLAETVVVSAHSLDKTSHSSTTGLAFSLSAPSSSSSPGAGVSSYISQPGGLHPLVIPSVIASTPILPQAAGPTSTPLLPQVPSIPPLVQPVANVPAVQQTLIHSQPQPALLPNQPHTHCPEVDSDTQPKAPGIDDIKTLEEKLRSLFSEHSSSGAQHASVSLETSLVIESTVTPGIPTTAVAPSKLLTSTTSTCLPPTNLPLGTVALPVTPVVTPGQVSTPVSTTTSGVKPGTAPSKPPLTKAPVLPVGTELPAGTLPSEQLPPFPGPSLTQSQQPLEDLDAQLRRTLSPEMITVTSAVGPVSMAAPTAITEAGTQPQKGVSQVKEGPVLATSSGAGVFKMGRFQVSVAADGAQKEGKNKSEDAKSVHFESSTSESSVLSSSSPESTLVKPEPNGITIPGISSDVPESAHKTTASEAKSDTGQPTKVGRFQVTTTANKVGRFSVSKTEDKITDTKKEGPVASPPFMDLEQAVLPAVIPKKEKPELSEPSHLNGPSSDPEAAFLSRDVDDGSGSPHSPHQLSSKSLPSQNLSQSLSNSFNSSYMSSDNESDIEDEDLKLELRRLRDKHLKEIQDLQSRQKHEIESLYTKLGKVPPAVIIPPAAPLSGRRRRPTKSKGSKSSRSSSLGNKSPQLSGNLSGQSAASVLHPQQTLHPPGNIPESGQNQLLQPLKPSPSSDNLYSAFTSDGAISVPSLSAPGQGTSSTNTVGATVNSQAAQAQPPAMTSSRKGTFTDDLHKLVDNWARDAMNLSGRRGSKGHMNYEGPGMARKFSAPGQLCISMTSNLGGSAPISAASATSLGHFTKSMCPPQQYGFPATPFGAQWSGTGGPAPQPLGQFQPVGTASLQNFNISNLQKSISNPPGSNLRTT
Method: as §1, §2, §3, §4

ERK8 = ERK8 (Homo sapiens, UniProt Q8TD08); conditions: ERK8 (Entrez MAPK15), read-out: Residual activity (%)
Sequence of ERK8 (Q8TD08 whole entry): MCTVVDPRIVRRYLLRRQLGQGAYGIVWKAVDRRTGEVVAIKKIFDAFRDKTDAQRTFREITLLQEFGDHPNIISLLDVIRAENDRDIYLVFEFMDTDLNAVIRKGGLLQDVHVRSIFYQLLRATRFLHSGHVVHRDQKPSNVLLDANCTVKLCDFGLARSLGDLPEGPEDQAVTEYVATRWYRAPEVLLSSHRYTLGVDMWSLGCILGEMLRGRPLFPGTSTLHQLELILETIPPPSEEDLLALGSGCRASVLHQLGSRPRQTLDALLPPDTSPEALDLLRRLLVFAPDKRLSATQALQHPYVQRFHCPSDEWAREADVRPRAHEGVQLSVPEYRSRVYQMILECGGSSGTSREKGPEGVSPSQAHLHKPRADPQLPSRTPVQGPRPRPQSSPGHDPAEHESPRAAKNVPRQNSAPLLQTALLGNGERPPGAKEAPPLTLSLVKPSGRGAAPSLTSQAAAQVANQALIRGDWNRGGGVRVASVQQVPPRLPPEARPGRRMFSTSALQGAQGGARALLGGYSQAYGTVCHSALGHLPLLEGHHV
Method: as §1, §2, §3, §4

GSK3b = GSK3b (Homo sapiens, UniProt P49841); conditions: GSK3b (Entrez GSK3B), read-out: Residual activity (%)
Sequence of GSK3b (P49841 whole entry): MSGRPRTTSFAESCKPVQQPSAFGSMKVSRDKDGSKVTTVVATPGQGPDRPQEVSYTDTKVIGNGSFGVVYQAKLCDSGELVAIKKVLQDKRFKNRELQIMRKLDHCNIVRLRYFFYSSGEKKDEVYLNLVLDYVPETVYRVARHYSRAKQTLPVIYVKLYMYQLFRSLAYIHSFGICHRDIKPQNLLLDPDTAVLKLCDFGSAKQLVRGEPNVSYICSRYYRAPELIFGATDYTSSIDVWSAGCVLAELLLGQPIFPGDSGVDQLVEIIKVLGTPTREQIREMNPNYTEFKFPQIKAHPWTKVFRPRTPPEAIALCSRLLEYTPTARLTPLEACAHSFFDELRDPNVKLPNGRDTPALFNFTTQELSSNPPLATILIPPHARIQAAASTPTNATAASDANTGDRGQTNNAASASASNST
Method: as §1, §2, §3, §4

PIM3 = PIM3 (Homo sapiens, UniProt Q86V86); conditions: PIM3 (Entrez PIM3), read-out: Residual activity (%)
Method: as §1, §2, §3, §4

EPH-B2 = EPH-B2 (Homo sapiens, UniProt P29323); conditions: EPH-B2 (Entrez EPHB2), read-out: Residual activity (%)
Method: as §1, §2, §3, §4

CK1γ2 = CK1γ2 (Homo sapiens, UniProt P78368); conditions: CK1γ2 (Entrez CSNK1D), read-out: Residual activity (%)
Method: as §1, §2, §3, §4

NUAK1 = NUAK1 (Homo sapiens, UniProt O60285); conditions: NUAK1 (Entrez NUAK1), read-out: Residual activity (%)
Sequence of NUAK1 (O60285 whole entry, species assumed): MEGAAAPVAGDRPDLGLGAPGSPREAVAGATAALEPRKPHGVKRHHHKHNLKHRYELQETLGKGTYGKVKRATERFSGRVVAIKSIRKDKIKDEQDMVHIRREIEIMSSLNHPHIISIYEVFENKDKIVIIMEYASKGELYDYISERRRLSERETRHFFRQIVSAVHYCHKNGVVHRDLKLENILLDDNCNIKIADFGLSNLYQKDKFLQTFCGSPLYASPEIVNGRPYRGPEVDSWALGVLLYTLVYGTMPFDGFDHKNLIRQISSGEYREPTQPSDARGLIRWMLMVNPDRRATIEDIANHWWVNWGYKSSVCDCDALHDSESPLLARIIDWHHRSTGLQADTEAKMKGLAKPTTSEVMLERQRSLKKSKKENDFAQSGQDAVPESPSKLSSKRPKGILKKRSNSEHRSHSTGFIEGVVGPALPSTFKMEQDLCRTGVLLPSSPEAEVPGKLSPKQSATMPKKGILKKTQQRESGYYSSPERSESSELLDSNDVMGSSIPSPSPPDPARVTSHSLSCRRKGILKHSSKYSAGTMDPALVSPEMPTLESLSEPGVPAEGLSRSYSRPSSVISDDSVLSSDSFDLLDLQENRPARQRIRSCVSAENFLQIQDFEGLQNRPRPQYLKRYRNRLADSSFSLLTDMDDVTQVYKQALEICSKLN
Method: as §1, §2, §3, §4

MKK2 = MKK2 (Homo sapiens, UniProt P36507); conditions: MKK2 (Entrez MAP2K2), read-out: Residual activity (%)
Method: as §1, §2, §3, §4

TTK = TTK (Homo sapiens, UniProt P33981); conditions: TTK (Entrez TTK), read-out: Residual activity (%)
Method: as §1, §2, §3, §4

EF2K = EF2K (Homo sapiens, UniProt O00418); conditions: EF2K (Entrez EEF2K), read-out: Residual activity (%)
Method: as §1, §2, §3, §4

NEK6 = NEK6 (Homo sapiens, UniProt Q9HC98); conditions: NEK6 (Entrez NEK6), read-out: Residual activity (%)
Method: as §1, §2, §3, §4

CK1δ = CK1δ (Homo sapiens, UniProt P48730); conditions: CK1δ (Entrez CSNK1G2), read-out: Residual activity (%)
Method: as §1, §2, §3, §4

MINK1 = MINK1 (Homo sapiens, UniProt Q8N4C8); conditions: MINK1 (Entrez MINK1), read-out: Residual activity (%)
Method: as §1, §2, §3, §4

AMPK (hum) = AMPK (hum) (Homo sapiens, UniProt Q13131); conditions: AMPK (hum) (Entrez PRKAA1 + PRKAB2 + PRKAG1), read-out: Residual activity (%)
Method: as §1, §2, §3, §4

MLK3 = MLK3 (Homo sapiens, UniProt Q16584); conditions: MLK3 (Entrez MAP3K11), read-out: Residual activity (%)
Sequence of MLK3 (Q16584 whole entry): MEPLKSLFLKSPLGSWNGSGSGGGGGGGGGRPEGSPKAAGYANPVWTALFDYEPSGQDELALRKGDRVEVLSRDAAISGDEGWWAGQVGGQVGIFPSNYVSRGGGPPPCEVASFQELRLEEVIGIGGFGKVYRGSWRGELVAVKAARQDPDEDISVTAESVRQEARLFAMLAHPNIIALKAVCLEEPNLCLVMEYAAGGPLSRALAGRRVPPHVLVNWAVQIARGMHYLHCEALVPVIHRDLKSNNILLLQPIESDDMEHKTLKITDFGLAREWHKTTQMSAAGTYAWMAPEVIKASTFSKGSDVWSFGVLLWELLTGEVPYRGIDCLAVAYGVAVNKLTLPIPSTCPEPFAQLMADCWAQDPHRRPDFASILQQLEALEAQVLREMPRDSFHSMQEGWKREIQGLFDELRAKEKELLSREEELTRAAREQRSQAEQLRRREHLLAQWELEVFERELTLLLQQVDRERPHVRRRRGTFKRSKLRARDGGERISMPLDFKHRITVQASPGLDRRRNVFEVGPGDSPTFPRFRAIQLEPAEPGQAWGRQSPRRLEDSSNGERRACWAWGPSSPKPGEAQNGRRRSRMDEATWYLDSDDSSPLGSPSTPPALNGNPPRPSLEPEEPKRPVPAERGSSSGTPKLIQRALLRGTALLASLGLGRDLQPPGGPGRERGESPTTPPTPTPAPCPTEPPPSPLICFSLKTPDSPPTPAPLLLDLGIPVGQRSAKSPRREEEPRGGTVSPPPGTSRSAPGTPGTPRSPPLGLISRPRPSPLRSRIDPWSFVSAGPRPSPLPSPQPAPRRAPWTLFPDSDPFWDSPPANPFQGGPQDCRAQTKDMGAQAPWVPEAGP
Method: as §1, §2, §3, §4

JNK3 = JNK3 (Homo sapiens, UniProt P53779); conditions: JNK3 (Entrez MAPK10), read-out: Residual activity (%)
Method: as §1, §2, §3, §4

SGK1 = SGK1 (Homo sapiens, UniProt O00141); conditions: SGK1 (Entrez SGK1), read-out: Residual activity (%)
Method: as §1, §2, §3, §4

MARK2 = MARK2 (Homo sapiens, UniProt Q7KZI7); conditions: MARK2 (Entrez MARK2), read-out: Residual activity (%)
Method: as §1, §2, §3, §4

ABL = ABL (Homo sapiens, UniProt P00519); conditions: ABL (Entrez ABL1), read-out: Residual activity (%)
Method: as §1, §2, §3, §4

IKKe = IKKe (Homo sapiens, UniProt Q14164); conditions: IKKe (Entrez IKBKE), read-out: Residual activity (%)
Method: as §1, §2, §3, §4

ERK1 = ERK1 (Homo sapiens, UniProt P27361); conditions: ERK1 (Entrez MAPK3), read-out: Residual activity (%)
Method: as §1, §2, §3, §4

EPH-B3 = EPH-B3 (Homo sapiens, UniProt P54753); conditions: EPH-B3 (Entrez EPHB3), read-out: Residual activity (%)
Method: as §1, §2, §3, §4

CDK9-Cyclin T1 = CDK9-Cyclin T1 (Homo sapiens, UniProt P50750); conditions: CDK9-Cyclin T1 (Entrez CDK9 + CCNT1), read-out: Residual activity (%)
Method: as §1, §2, §3, §4

p38a MAPK = p38a MAPK (Homo sapiens, UniProt Q16539); conditions: p38a MAPK (Entrez MAPK14), read-out: Residual activity (%)
Method: as §1, §2, §3, §4

SMILES: COc1ccc(Nc2ncnc3c2ccn3-c2ccc(C)c(C)c2)cc1Cl [compound 36]
- remaining activity at 1 µM (MELK): 92%
- remaining activity at 1 µM (ULK1): 102%
- remaining activity at 1 µM (PIM2): 97%
- remaining activity at 1 µM (SYK): 97%
- remaining activity at 1 µM (MKK1): 112%
- remaining activity at 1 µM (TLK1): 96%
- remaining activity at 1 µM (TTBK2): 70%
- remaining activity at 1 µM (WNK1): 105%
- remaining activity at 1 µM (ERK8): 110%
- remaining activity at 1 µM (GSK3b): 102%
- remaining activity at 1 µM (PIM3): 87%
- remaining activity at 1 µM (EPH-B2): 97%
- remaining activity at 1 µM (CK1γ2): 92%
- remaining activity at 1 µM (NUAK1): 138%
- remaining activity at 1 µM (MKK2): 82%
- remaining activity at 1 µM (TTK): 87%
- remaining activity at 1 µM (EF2K): 85%
- remaining activity at 1 µM (NEK6): 104%
- remaining activity at 1 µM (CK1δ): 92%
- remaining activity at 1 µM (MINK1): 107%
- remaining activity at 1 µM (AMPK (hum)): 94%
- remaining activity at 1 µM (MLK3): 83%
- remaining activity at 1 µM (JNK3): 89%
- remaining activity at 1 µM (SGK1): 97%
- remaining activity at 1 µM (MARK2): 127%
- remaining activity at 1 µM (ABL): 89%
- remaining activity at 1 µM (IKKe): 89%
- remaining activity at 1 µM (ERK1): 62%
- remaining activity at 1 µM (EPH-B3): 79%
- remaining activity at 1 µM (CDK9-Cyclin T1): 94%
- remaining activity at 1 µM (p38a MAPK): 98%
